Assay results taken from patent publication US9023838B2, “Crystalline form I rosuvastatin zinc salt” (Egis Gyogyszergyar Nyilvanosan Muekoedoe, priority 2009, dated 2015).
Counter-ions that a name gives are not always drawn.

Legend:
[1] = Hygroscopicity (water absorbed); format: physicochemical
[2] = Chemical stability on storage at 25° C., 60% relative humidity (impurity concentrations); format: physicochemical; details: for Lactone impurity / M-2 impurity / Total impurities / Total impurities, number of peaks / Change of concentration of impurity M-2 relative to the initial concentration: 25° C.; for Lactone impurity / M-2 impurity / Total impurities / Total impurities, number of peaks: 60% RH; for Increase in the concentration of rosuvastatin lactone: after one month storage; for Change of concentration of impurity M-2 relative to the initial concentration: one month, 60% relative humidity
Experimental: Chemical stability of amorphous and crystalline Form I rosuvastatin zinc salts (2:1) has been determined by challenging said substances at the storage condition of 25° C., 60% relative humidity.

[3] = listed as amorphous rosuvastatin zinc salt (2:1)

SMILES	Amount of water absorbed ([1]; listed as crystalline Form I rosuvastatin zinc salt (2:1)) [% by weight]	Lactone impurity ([2]; 1 month) [%]	M-2 impurity ([2]; 1 month) [%]	Total impurities ([2]; 1 month) [%]	Total impurities, number of peaks ([2]; 1 month)	Lactone impurity ([2]; Initial) [%]	M-2 impurity ([2]; Initial) [%]	Total impurities ([2]; Initial) [%]	Total impurities, number of peaks ([2]; Initial)	Increase in the concentration of rosuvastatin lactone ([2]; listed as crystalline Form I of rosuvastatin zinc salt (2:1))	Total amount of the impurities and number of the individual impurities during storage, compared with the amorphous form ([2]; during storage)	Change of concentration of impurity M-2 relative to the initial concentration ([2]; listed as crystalline Form I substance)	Amount of water absorbed [1, 3] [% by weight]	Increase in the concentration of rosuvastatin lactone [2, 3]	Change of concentration of impurity M-2 relative to the initial concentration ([2]; listed as amorphous form of rosuvastatin zinc salt)
CC(C)c1nc(N(C)S(C)(=O)=O)nc(-c2ccc(F)cc2)c1/C=C/[C@@H](O)C[C@@H](O)CC(=O)O [Form I, 7-[4-(4-fluorophenyl)-6-isopropyl-2-(methanesulfonyl-methyl-amino)-pyrimidin-5-yl]-(3R,5S)-dihydroxy-hept-6-enoic acid zinc salt (2:1)]	0.24	0.32	0.08	0.49	(3 peaks)	0.13	0.07	0.28	(3 peaks)	much less prone to form lactone of rosuvastatin	significantly lower	practically unchanged	–	–	–
CC(C)c1nc(N(C)S(C)(=O)=O)nc(-c2ccc(F)cc2)c1/C=C/[C@@H](O)C[C@@H](O)CC(=O)O [Amorphous, 7-[4-(4-fluorophenyl)-6-isopropyl-2-(methanesulfonyl-methyl-amino)-pyrimidin-S-yl]-(3R,5S)-dihydroxy-hept-6-enoic acid zinc salt (2:1), reference compound]	–	0.51	0.10	0.77	(6 peaks)	0.10	0.03	0.38	(7 peaks)	–	–	–	1.88	five-fold increase	three-fold of the initial concentration
